In US20250122183A1 (Pfizer Inc., priority 2023, published 2025) one finds Ki data, which are given here for 22 compounds.

Common to all, as to format: biochemical
What all share (settings): replicate number in parentheses

Experiment [1] addresses KAT7+JADE1+EAF6+ING5 4 protein complex (Homo sapiens (Human), UniProt O95251). Put plainly: KAT7 JADE1 assay (SAMDI-MS acetylation of H3 1-21 peptide).
A further experiment has as its target KAT8 Full length enzyme (Homo sapiens (Human), UniProt Q9H7Z6). The experiment in a line: KAT8 assay (SAMDI-MS acetylation of H3 1-21 peptide).
Another experiment concerns the target KAT6A Full length enzyme (Homo sapiens (Human), UniProt Q92794). The experiment in a line: KAT6A assay (SAMDI-MS acetylation of H3 1-21 peptide).
Setting [2] is: Morrison equation fit, read-out: KAT7 JADE1 Ki (nM) (replicate number).
The mark [3] stands for this setting: Morrison equation fit, read-out: KAT8 Ki (nM) (replicate number).
Setting [4] is: Morrison equation fit, read-out: KAT6A Ki (nM) (replicate number).
Setting [5] is: read-out: KAT7 JADE1 Ki (nM) (replicate).
Where [6] appears, read: read-out: KAT8 Ki (nM) (replicate).
[7] abbreviates: read-out: KAT6A Ki (nM) (replicate).

Read-outs that look alike come from different tables or passages of the source.

Sequence of KAT6A Full length enzyme (Q92794 other isoform, or with tags, fused parts or gaps): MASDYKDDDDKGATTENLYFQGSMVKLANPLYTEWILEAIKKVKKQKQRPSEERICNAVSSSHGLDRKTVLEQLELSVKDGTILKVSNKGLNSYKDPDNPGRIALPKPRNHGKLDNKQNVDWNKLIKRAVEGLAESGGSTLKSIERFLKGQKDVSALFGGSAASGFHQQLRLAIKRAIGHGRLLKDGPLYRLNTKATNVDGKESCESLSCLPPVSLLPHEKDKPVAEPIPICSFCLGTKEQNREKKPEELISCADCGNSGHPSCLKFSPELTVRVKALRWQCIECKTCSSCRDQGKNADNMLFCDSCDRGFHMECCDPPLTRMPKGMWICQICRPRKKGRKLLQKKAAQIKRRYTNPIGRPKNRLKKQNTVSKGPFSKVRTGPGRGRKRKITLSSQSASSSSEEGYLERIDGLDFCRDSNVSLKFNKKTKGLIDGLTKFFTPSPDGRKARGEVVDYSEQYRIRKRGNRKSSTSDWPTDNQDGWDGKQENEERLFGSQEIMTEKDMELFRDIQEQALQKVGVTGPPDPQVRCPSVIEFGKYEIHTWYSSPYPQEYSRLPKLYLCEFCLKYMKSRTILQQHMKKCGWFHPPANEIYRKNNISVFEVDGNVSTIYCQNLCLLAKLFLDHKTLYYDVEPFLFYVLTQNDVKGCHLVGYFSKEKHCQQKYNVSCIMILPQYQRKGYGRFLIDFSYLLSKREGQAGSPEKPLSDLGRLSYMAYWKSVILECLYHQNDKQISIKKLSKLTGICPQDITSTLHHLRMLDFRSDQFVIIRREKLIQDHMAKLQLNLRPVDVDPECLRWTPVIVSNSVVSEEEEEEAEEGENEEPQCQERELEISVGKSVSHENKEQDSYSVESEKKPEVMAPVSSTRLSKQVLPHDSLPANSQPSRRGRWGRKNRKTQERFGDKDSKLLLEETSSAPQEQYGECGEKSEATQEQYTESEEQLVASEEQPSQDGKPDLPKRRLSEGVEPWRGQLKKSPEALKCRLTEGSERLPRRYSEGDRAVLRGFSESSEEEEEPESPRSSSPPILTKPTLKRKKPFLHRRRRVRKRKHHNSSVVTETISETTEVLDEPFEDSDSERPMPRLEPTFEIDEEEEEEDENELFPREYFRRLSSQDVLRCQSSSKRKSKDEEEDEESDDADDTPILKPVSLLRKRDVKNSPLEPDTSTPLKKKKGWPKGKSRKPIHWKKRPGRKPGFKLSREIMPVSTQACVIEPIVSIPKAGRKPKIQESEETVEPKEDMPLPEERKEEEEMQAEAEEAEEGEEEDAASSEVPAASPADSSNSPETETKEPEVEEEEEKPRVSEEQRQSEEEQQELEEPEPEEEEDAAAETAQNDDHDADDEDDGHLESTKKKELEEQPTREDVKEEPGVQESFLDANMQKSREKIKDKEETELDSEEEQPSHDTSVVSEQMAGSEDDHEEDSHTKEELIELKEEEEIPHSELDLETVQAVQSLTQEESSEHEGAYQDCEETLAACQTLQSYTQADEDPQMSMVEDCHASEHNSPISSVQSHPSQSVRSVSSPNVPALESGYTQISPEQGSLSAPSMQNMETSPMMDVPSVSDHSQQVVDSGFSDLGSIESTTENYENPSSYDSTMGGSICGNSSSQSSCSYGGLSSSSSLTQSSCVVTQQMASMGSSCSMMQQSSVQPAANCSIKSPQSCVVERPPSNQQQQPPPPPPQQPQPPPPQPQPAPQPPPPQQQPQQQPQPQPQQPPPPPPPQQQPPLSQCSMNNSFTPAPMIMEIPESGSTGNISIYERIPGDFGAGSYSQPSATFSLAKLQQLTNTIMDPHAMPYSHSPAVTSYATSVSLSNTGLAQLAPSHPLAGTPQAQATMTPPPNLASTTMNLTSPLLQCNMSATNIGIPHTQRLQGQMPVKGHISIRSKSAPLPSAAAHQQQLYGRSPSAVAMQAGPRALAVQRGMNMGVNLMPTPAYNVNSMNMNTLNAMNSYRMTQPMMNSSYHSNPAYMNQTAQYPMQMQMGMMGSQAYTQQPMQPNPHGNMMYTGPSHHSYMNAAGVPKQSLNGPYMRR
Sequence of KAT8 Full length enzyme (Q9H7Z6 whole entry): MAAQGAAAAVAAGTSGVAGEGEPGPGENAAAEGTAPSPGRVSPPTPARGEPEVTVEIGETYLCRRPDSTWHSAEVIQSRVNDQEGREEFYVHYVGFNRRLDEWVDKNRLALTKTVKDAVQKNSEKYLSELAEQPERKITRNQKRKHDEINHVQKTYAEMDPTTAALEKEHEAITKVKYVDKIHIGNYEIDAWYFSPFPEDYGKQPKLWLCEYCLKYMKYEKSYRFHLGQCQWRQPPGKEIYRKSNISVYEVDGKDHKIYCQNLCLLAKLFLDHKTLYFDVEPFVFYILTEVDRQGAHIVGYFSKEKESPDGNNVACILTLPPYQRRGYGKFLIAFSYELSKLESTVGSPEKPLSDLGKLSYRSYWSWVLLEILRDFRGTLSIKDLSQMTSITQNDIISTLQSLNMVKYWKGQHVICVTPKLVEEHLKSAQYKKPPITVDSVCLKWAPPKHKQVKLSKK

What is called Ki is the equilibrium dissociation constant of an inhibitor or competing ligand from its target. With `COc1cc2c(NS(=O)(=O)c3c(OC)cc(C4CCCN(C)C4)cc3OC)noc2cc1Nc1cc(C2CC2)n[nH]1` (single isomer, unassigned) [Example 149, N-{6-[(3-cyclopropyl-1H-pyrazol-5-yl)amino]-5-methoxy-1,2-benzoxazol-3-yl}-2,6-dimethoxy-4-(1-methylpiperidin-3-yl)benzene-1-sulfonamide], the Ki in experiment [1] (setting [2]) is 5.3 nM; on KAT8 Full length enzyme (setting [3]), 19000 nM; at KAT6A Full length enzyme (setting [4]), 0.6 nM.
As for `COc1cc2c(NS(=O)(=O)c3c(OC)cc(C4CCCN(C)C4)cc3OC)noc2cc1Nc1cc(C2CC2)n[nH]1` (single isomer, unassigned) [Example 150, N-{6-[(3-cyclopropyl-1 H-pyrazol-5-yl)amino]-5-methoxy-1,2-benzoxazol-3-yl}-2,6-dimethoxy-4-(1-methylpiperidin-3-yl)benzene-1-sulfonamide], the values for the Ki (in experiment [1] (setting [2]); on KAT8 Full length enzyme (setting [3]); on KAT6A Full length enzyme (setting [4])) were 6.3 nM, 10300 nM and 0.8 nM, respectively.
Consider `COc1cc2c(NS(=O)(=O)c3c(OC)cc(C(C)OC)cc3OC)noc2cc1Nc1cc(C2CC2)[nH]n1` (single isomer, unassigned) [Example 272, N-{6-[(5-cyclopropyl-1H-pyrazol-3-yl)amino]-5-methoxy-1,2-benzoxazol-3-yl}-2,6-dimethoxy-4-(1-methoxyethyl)benzene-1-sulfonamide], for which the Ki in experiment [1] (setting [5]) came to 5 nM; at KAT8 Full length enzyme (setting [6]), 2650 nM; on KAT6A Full length enzyme (setting [7]) it was 0.7 nM.
As for `COc1cc2c(NS(=O)(=O)c3c(OC)cc(C(C)OC)cc3OC)noc2cc1Nc1cc(C2CC2)[nH]n1` (single isomer, unassigned) [Example 273, N-{6-[(5-cyclopropyl-1H-pyrazol-3-yl)amino]-5-methoxy-1,2-benzoxazol-3-yl}-2,6-dimethoxy-4-(1-methoxyethyl)benzene-1-sulfonamide], the Ki in experiment [1] (setting [5]) came out at 4.7 nM; on KAT8 Full length enzyme (setting [6]) it was 2020 nM; on KAT6A Full length enzyme (setting [7]), 0.6 nM.
Take `COc1cc2c(NS(=O)(=O)c3c(OC)cc(CN(C)C)cc3OC)noc2cc1Nc1cc(C2CC2)n[nH]1` [Example 144, N-{6-[(3-cyclopropyl-1 H-pyrazol-5-yl)amino]-5-methoxy-1,2-benzoxazol-3-yl}-4-[(dimethylamino)methyl]-2,6-dimethoxybenzene-1-sulfonamide]: the figures for the inhibition constant (Ki) (in experiment [1] (setting [2]); at KAT8 Full length enzyme (setting [3]); at KAT6A Full length enzyme (setting [4])) were 10.2 nM, 2780 nM and 1.8 nM, respectively.
Regarding `COc1cc2c(NS(=O)(=O)c3c(OC)cc([C@@H]4COCCO4)cc3OC)noc2cc1Nc1cc(C2CC2)n[nH]1` [Example 145], the Ki amounted to 9.2 nM in experiment [1] (setting [2]), 1510 nM at KAT8 Full length enzyme (setting [3]) and 1.8 nM at KAT6A Full length enzyme (setting [4]).
As for `COc1cc2c(NS(=O)(=O)c3c(OC)cc(-c4nccc(C)n4)cc3OC)noc2cc1Nc1cc(C2CC2)n[nH]1` [Example 214, N-{6-[(3-cyclopropyl-1H-pyrazol-5-yl)amino]-5-methoxy-1,2-benzoxazol-3-yl}-2,6-dimethoxy-4-(4-methylpyrimidin-2-yl)benzene-1-sulfonamide], the Ki stood at 4.3 nM in experiment [1] (setting [2]), 1720 nM on KAT8 Full length enzyme (setting [3]) and 0.7 nM on KAT6A Full length enzyme (setting [4]).
Regarding `COc1cc2c(NS(=O)(=O)c3c(OC)cc(-c4ccc(C)cn4)cc3OC)noc2cc1Nc1cc(C2CC2)n[nH]1` [Example 215, N-{6-[(3-cyclopropyl-1H-pyrazol-5-yl)amino]-5-methoxy-1,2-benzoxazol-3-yl}-2,6-dimethoxy-4-(5-methylpyridin-2-yl)benzene-1-sulfonamide], the results for the Ki (in experiment [1] (setting [2]); at KAT8 Full length enzyme (setting [3]); on KAT6A Full length enzyme (setting [4])) were 4.2 nM, 994 nM and 0.4 nM, respectively.
On to `COc1cc2c(NS(=O)(=O)c3c(OC)cc(-c4cccn(C)c4=O)cc3OC)noc2cc1Nc1cc(C2CC2)n[nH]1` [Example 221, N-{6-[(3-cyclopropyl-1H-pyrazol-5-yl)amino]-5-methoxy-1,2-benzoxazol-3-yl}-2,6-dimethoxy-4-(1-methyl-2-oxo-1,2-dihydropyridin-3-yl)benzene-1-sulfonamide], for which the Ki in experiment [1] (setting [2]) amounted to 6.2 nM; on KAT8 Full length enzyme (setting [3]), 1490 nM; on KAT6A Full length enzyme (setting [4]), 0.7 nM.
For the compound `CCc1cc(Nc2cc3onc(NS(=O)(=O)c4c(OC)cc(-c5cccc(C)n5)cc4OC)c3cc2OC)[nH]n1` [Example 231, N-{6-[(3-ethyl-1H-pyrazol-5-yl)amino]-5-methoxy-1,2-benzoxazol-3-yl}-2,6-dimethoxy-4-(6-methylpyridin-2-yl)benzene-1-sulfonamide], the Ki in experiment [1] (setting [2]) amounted to 8.8 nM; at KAT8 Full length enzyme (setting [3]), 859 nM; on KAT6A Full length enzyme (setting [4]), 1.1 nM.
`CCc1cc(Nc2cc3onc(NS(=O)(=O)c4c(OC)cc(-c5cnc(C)cn5)cc4OC)c3cc2OC)[nH]n1` [Example 232, N-{6-[(3-ethyl-1H-pyrazol-5-yl)amino]-5-methoxy-1,2-benzoxazol-3-yl}-2,6-dimethoxy-4-(5-methylpyrazin-2-yl)benzene-1-sulfonamide]: the Ki in experiment [1] (setting [2]) was 6.4 nM; at KAT8 Full length enzyme (setting [3]) it was 2620 nM; at KAT6A Full length enzyme (setting [4]), 0.6 nM.
The matching figures for `CCc1cc(Nc2cc3onc(NS(=O)(=O)c4c(OC)cc(-c5nccc(C)n5)cc4OC)c3cc2OC)[nH]n1` [Example 233, N-{6-[(3-ethyl-1H-pyrazol-5-yl)amino]-5-methoxy-1,2-benzoxazol-3-yl}-2,6-dimethoxy-4-(4-methylpyrimidin-2-yl)benzene-1-sulfonamide]: 8.9 nM, 2000 nM and 1.7 nM.
Turning to `CCc1cc(Nc2cc3onc(NS(=O)(=O)c4c(OC)cc(-c5ncc(C)cn5)cc4OC)c3cc2OC)[nH]n1` [Example 234, N-{6-[(3-ethyl-1H-pyrazol-5-yl)amino]-5-methoxy-1,2-benzoxazol-3-yl}-2,6-dimethoxy-4-(5-methylpyrimidin-2-yl)benzene-1-sulfonamide], the Ki is 8.5 nM in experiment [1] (setting [2]), 1680 nM at KAT8 Full length enzyme (setting [3]) and 1 nM on KAT6A Full length enzyme (setting [4]).
As for `CCc1cc(Nc2cc3onc(NS(=O)(=O)c4c(OC)cc(-c5ccc(C)nn5)cc4OC)c3cc2OC)[nH]n1` [Example 235, N-{6-[(3-ethyl-1H-pyrazol-5-yl)amino]-5-methoxy-1,2-benzoxazol-3-yl}-2,6-dimethoxy-4-(6-methylpyridazin-3-yl)benzene-1-sulfonamide], the Ki in experiment [1] (setting [2]) was determined as 6 nM; on KAT8 Full length enzyme (setting [3]) it was 2360 nM; at KAT6A Full length enzyme (setting [4]), 0.8 nM.
As to `CCc1cc(Nc2cc3onc(NS(=O)(=O)c4c(OC)cc(-c5ccc(C)cn5)cc4OC)c3cc2OC)[nH]n1` [Example 236, N-{6-[(3-ethyl-1H-pyrazol-5-yl)amino]-5-methoxy-1,2-benzoxazol-3-yl}-2,6-dimethoxy-4-(5-methylpyridin-2-yl)benzene-1-sulfonamide], the Ki in experiment [1] (setting [2]) came to 3.5 nM; on KAT8 Full length enzyme (setting [3]) it was 364 nM; at KAT6A Full length enzyme (setting [4]), 0.4 nM.
`COc1cc2c(NS(=O)(=O)c3c(OC)cc(N4CCCC4=O)cc3OC)noc2cc1Nc1cc(C2CC2)n[nH]1` [Example 246, N-{6-[(3-cyclopropyl-1H-pyrazol-5-yl)amino]-5-methoxy-1,2-benzoxazol-3-yl}-2,6-dimethoxy-4-(2-oxopyrrolidin-1-yl)benzene-1-sulfonamide]: the Ki in experiment [1] (setting [5]) turned out to be 6.4 nM; on KAT8 Full length enzyme (setting [6]), 1840 nM; on KAT6A Full length enzyme (setting [7]), 1 nM.
Consider `COc1cc2c(NS(=O)(=O)c3c(OC)cc(C(=O)N4CCC(F)(F)CC4)cc3OC)noc2cc1Nc1cc(C2CC2)n[nH]1` [Example 263, N-{6-[(3-cyclopropyl-1H-pyrazol-5-yl)amino]-5-methoxy-1,2-benzoxazol-3-yl}-4-(4,4-difluoropiperidine-1-carbonyl)-2,6-dimethoxybenzene-1-sulfonamide], for which the Ki was determined as 9.8 nM in experiment [1] (setting [5]) and 1.4 nM on KAT6A Full length enzyme (setting [7]).
Consider `COc1cc2c(NS(=O)(=O)c3c(OC)cc(C(=O)N4CC(F)(F)C4)cc3OC)noc2cc1Nc1cc(C2CC2)n[nH]1` [Example 264, N-{6-[(3-cyclopropyl-1H-pyrazol-5-yl)amino]-5-methoxy-1,2-benzoxazol-3-yl}-4-(3,3-difluoroazetidine-1-carbonyl)-2,6-dimethoxybenzene-1-sulfonamide], for which the Ki in experiment [1] (setting [5]) was determined as 17.6 nM; on KAT6A Full length enzyme (setting [7]), 2.3 nM.
As for `COc1cc2c(NS(=O)(=O)c3c(OC)cc(C4CCOCC4)cc3OC)noc2cc1Nc1cc(C2CC2)n[nH]1` [Example 265, N-{6-[(3-cyclopropyl-1 H-pyrazol-5-yl)amino]-5-methoxy-1,2-benzoxazol-3-yl}-2,6-dimethoxy-4-(oxan-4-yl)benzene-1-sulfonamide], the inhibition constant Ki in experiment [1] (setting [5]) turned out to be 2.3 nM; at KAT8 Full length enzyme (setting [6]) it was 918 nM; on KAT6A Full length enzyme (setting [7]) it was 0.3 nM.
As for `COCc1cc(OC)c(S(=O)(=O)Nc2noc3cc(Nc4cc(C5CC5)n[nH]4)c(OC)cc23)c(OC)c1` [Example 270, N-{6-[(3-cyclopropyl-1 H-pyrazol-5-yl)amino]-5-methoxy-1,2-benzoxazol-3-yl}-2,6-dimethoxy-4-(methoxymethyl)benzene-1-sulfonamide], the Ki in experiment [1] (setting [5]) was found to be 13.5 nM; at KAT8 Full length enzyme (setting [6]) it was 1790 nM; on KAT6A Full length enzyme (setting [7]), 1.3 nM.
In the case of `COc1cc2c(NS(=O)(=O)c3c(OC)cc(C4CCO4)cc3OC)noc2cc1Nc1cc(C2CC2)n[nH]1` (centres unmarked) [Example 276, N-{6-[(3-cyclopropyl-1H-pyrazol-5-yl)amino]-5-methoxy-1,2-benzoxazol-3-yl}-2,6-dimethoxy-4-(oxetan-2-yl)benzene-1-sulfonamide], the Ki in experiment [1] (setting [5]) came out at 16.8 nM; at KAT6A Full length enzyme (setting [7]), 1.3 nM.
On to “N-{6-[(3-cyclopropyl-1 H-pyrazol-5-yl)amino]-5-methoxy-1,2-benzoxazol-3-yl}-4-(4,4-difluoro-1-methylpiperidin-3-yl)-2,6-dimethoxybenzene-1-sulfonamide [Example 176]”, for which the Ki is 2.7 nM in experiment [1] (setting [2]) and 1 nM at KAT6A Full length enzyme (setting [4]).
